Experimental data as given in patent US9315522B2, “Antibacterial compounds” (JANSSEN SCIENCES IRELAND UC, priority 2012, dated 2016).

Experiments:
[1] = biological target: T1, S. aureus ATCC 29213 FabI (Staphylococcus aureus, UniProt Q6GI75); assay: Staphylococcus aureus FabI enzyme inhibition assay; format: biochemical; settings: read-out: FabI (300.235) IC50 (converted)
T1 sequence (Q6GI75 1-256): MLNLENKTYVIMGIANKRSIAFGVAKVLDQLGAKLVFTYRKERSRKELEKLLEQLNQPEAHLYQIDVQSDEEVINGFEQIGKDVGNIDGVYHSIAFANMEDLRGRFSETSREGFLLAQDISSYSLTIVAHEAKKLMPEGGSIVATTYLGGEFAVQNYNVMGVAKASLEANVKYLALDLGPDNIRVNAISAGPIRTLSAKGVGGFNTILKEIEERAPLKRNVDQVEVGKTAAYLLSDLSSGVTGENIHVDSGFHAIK
Summary of the method: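 S. aureus ATCC 29213 FabI (50 μg/ml) with 250 μM crotonoyl-CoA and 625 μM NADH in 100 mM NaADA pH 6.5, inhibitor 50–0.39 μM, 30 min at room temperature. Stopped by Tris pH 9.0 shift; NADH at 340 nm versus no-compound and no-enzyme controls; IC50 in μg/ml.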

[2] = In vivo pharmacokinetic and oral bioavailability in mouse; set-up: species or system male Swiss mice
Method: The in vivo pharmacokinetics and oral bioavailability of the compound of the examples were/are investigated in male Swiss mice (fed) following single intravenous (i.v.) bolus and oral (p.o.) administration. For the i.v. and p.o. solution formulations, the compound was/is dissolved in a 20% HP-β-CD solution. The pH of the formulations was/is around pH 4. All i.v. formulations were isotonic.

[3] = test system: S. aureus; assay: Antibacterial susceptibility testing, IC90 determination with 10% human serum (STA + 10% HS); format: cell-based, Staphylococcus aureus; settings: Staphylococcus aureus, human serum at final concentration of 10%, read-out: STA + 10% HS (361.169) IC90
Summary of the method: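 Broth microdilution in Mueller-Hinton broth with 10% human serum, 5×10^5 CFU/ml S. aureus, two-fold compound dilutions (typically 63 to 0.49 μM), 1.25% DMSO, 16-20 h at 35° C. Growth read fluorometrically with resazurin (ex 540/em 590 nm); IC90 in μg/ml is the 90% growth-inhibitory concentration.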

[4] = test system: S. aureus strain ATCC 29213; assay: In vivo efficacy, peritonitis model of S. aureus infection; settings: female Swiss albino mice, IP infection, inoculum 8.9 log10, PO, QD, Sol 20% CD + 1HCl, 3 days post-infection
From the text: The concept of studying the in vivo effect of an antibacterial compound by treating intraperitoneally infected mice was introduced in 1911 for optochin against pneumococci (Morgenroth and Levy, 1911). The popularity of the model comes from the ease of its use with short-duration experiments, reproducible infections and simple end-points.
Methicillin-sensitive S. aureus strain ATCC 29213 was used to infect female Swiss albino mice. A Brain Heart Infusion (BHI) broth bacterial culture was inoculated the day before infection, incubated at 37° C. overnight and diluted in fresh BHI broth to the desired concentration. Intraperitoneal (i.p.) injection of ˜5×10^9 colony forming units (CFU) was performed in either of the lateral lower quadrants of the abdomen. After inoculation, mice were kept in their cages under daily observation for development of signs of infection or death. For the treatment of mice, the p.o. route was used and each mouse was treated individually by gavage. Example of Cpd No. 48 was formulated as a 20% HP-β-cyclodextrin and example of Cpd No. 38 was formulated as a water/Tween-20 suspension. The parameter used for monitoring the course of infection and the effect of treatment was death or survival of the animals over 3 days post-infection. As death could also be due to toxic side effects, a non-infected control group of 3 mice, treated with the highest dose of the compound tested, was included.

[5] = male, Swiss, plasma, iv, 2.5 mg/kg, 20% HP-β-cyclodextrin
[6] = male, Swiss, plasma, po, 10 mg/kg, 20% HP-β-cyclodextrin

## O=C1CNCc2cc(/C=C/C(=O)N3CC4C=C(c5nccs5)CC4C3)cnc2N1 (stereo not shown) [compound 48]
[1]
  IC50: ~0.663 µM
[2]; i.v., 2.5 mg/kg, 20% HP-β-cyclodextrin
  Vdz: 2.8 L/kg
[2]; [5]
  AUC(0-inf): 1.6 µg·h/mL
  C0: 4.56 µg/mL
[2]; male, Swiss, plasma, iv, 2.5 mg/kg, 20% HP-β-cyclodextrin, read-out: Half life (t1/2) (converted)
  half-life: 1.2 h
[2]; male, Swiss, plasma, iv, 2.5 mg/kg, 20% HP-β-cyclodextrin, read-out: Plasma clearance Cl (converted)
  clearance: 1.6 L/h/kg
[2]; [6]
  AUC(0-inf): 2.05 µg·h/mL
  Cmax: 0.483 µg/mL
  Tmax: 1.3 h
[2]; male, Swiss, plasma, po, p.o. 10 mg/kg vs i.v. 2.5 mg/kg
  bioavailability: 32%
[3]
  IC90: 0.21 mg/L
[4]; 1 mpk
  % Survival: 57%
[4]; 5 mpk
  % Survival: 100%
